For assay [1], the system named is SB.mhdgc-1. Put plainly: viability at highest tested concentration (MAXR) relative to DMSO; higher = less cytotoxic. The settings on record: SB.mhdgc-1 (hereditary c.1380delA CDH1 gastric cancer). The method in brief: (§1)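 Compound in DMSO was pinned (23 nL) at 11 threefold-diluted concentrations into wells containing 500 patient-derived gastric cancer cells, hereditary or sporadic, in 5 μL medium per 1536 well. Cells were incubated for 48 h, then exposed to CellTiter-Glo for 30 min at room temperature. Luminescence was measured on a ViewLux. The values are viability normalised to DMSO, either at the highest concentration or as trapezoidal area under the curve.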

The test system of assay [2] is SB.msgc-1. The description is as above. The settings on record: SB.msgc-1 (sporadic gastric cancer). The method in brief: as §1
The subject of assay [3] is SB.mhdgc-1. Description: area under the dose-response curve of % viability (trapezoidal, 11 doses) (% viability x log10 concentration); higher = less cytotoxic. The settings on record: SB.mhdgc-1 (hereditary c.1380delA CDH1 gastric cancer). An outline of the steps: as §1
In assay [4] the test system is SB.msgc-1. Described as above. The settings on record: SB.msgc-1 (sporadic gastric cancer). The method in brief:
as §1

The text below walks through data of the supplement of paper PMC5412046.

By viability is commonly meant a read-out of living cells in per cent, often relative to untreated cells. Turning to `O=C(c1ccc(F)cc1)C1CCN(CCn2c(=O)[nH]c3ccccc3c2=O)CC1` [Ketanserin] (top concentration 46.0829 µM), the viability was determined as 109% in assay [1] and 115% in assay [2]. For the same compound, the “area under the dose-response curve” value in assay [3] amounted to 536; in assay [4], 523.
On the same counts, the results for `CC(=O)N1CCN(c2ccc(OC[C@H]3CO[C@](Cn4ccnc4)(c4ccc(Cl)cc4Cl)O3)cc2)CC1` [Ketoconazole] (top concentration 46.0829 µM) are 49.6%, 53.7%, 532 and 536.
Turning to `O=C(c1ccccc1)c1ccc2n1CCC2C(=O)O` (centres undefined) [Ketorolac] (top concentration 46.0829 µM), the results for the viability in assay [1] and in assay [2] were 31.4% and 37.5%, respectively. The entries for the “area under the dose-response curve” value in assay [3] and in assay [4] were 453 and 408, respectively.
The like results for `CN1CC/C(CC1)=C3\c4ccccc4CC(=O)c2sccc23` [Ketotifen] (top concentration 46.0829 µM) were, in that order, 41%, 9%, 446 and 468.
For the compound `c1coc(CNc2ncnc3nc[nH]c23)c1` [Kinetin] (top concentration 46.0829 µM), the viability in assay [1] was 137%; in assay [2] it was 91.3%. Moreover, the “area under the dose-response curve” value in assay [3] was determined as 616; in assay [4], 525.
Consider `COC(=O)[C@@H](N)CCCNC(=N)N[N+](=O)[O-]` [L-NAME] (top concentration 46.0829 µM), for which the viability in assay [1] worked out at 21.9%; in assay [2], 48.5%. The “area under the dose-response curve” value in assay [3] came to 460; in assay [4], 509.
As to `N[C@@H](Cc1cc(I)c(Oc2cc(I)c(O)c(I)c2)c(I)c1)C(=O)O` [L-Thyroxine] (top concentration 46.0829 µM), the viability in assay [1] is 68.1%; in assay [2] it was 98.7%. Also, the entries for the “area under the dose-response curve” value in assay [3] and in assay [4] were 467 and 555, respectively.
On to `C[Se]CC[C@H](N)C(=O)O` [L-selenomethionine] (top concentration 92.1659 µM), for which the viability in assay [1] stood at 92.5%; in assay [2], 70.2%. Further, the “area under the dose-response curve” value in assay [3] turned out to be 494; in assay [4], 312.
On the same counts, the results for `C1CN\2C[C@@H](\N=C2S1)C3=CC=CC=C3` [L-tetramisol] (top concentration 46.0829 µM) are 130%, 91.3%, 564 and 442.
Consider `C/C(O)=C(\C#N)C(=O)Nc1cc(Br)ccc1Br` [LFM-A13] (top concentration 46.0829 µM), for which the viability was determined as 93.3% in assay [1] and 74% in assay [2]. Also, the entries for the “area under the dose-response curve” value in assay [3] and in assay [4] were 528 and 536, respectively.
On the same counts, the results for `Cc1cc(-c2ncc(CC(=O)Nc3ccc(-c4cnccn4)cn3)cc2C)ccn1` [LGK974] (top concentration 46.0829 µM) are 17.8%, 6.91%, 495 and 462.
As for `N[S+](=O)([O-])c1cccc2c1C(=O)c1cccc(O)c1C2=O` [LLL-12] (top concentration 46.0829 µM), the figures for the viability in assay [1] and in assay [2] were 3.33% and 2.09%, respectively. For the same compound, the figures for the “area under the dose-response curve” value in assay [3] and in assay [4] were 240 and 274, respectively.
On the same counts, the results for `COc1cc(C(=O)N2CCC(N3CCN(C)CC3)CC2)ccc1Nc1ncc2c(n1)N(C)c1ccccc1C(=O)N2C` [LRRK2-IN-1] (top concentration 46.0829 µM) are 35.1%, 13.7%, 483 and 423.
On the same counts, the results for `CC(N[C@H]1C[C@@H]1c1ccccc1)c1ccc2c(c1)OCCO2` (some centres undefined) [LSD1-C76] (top concentration 46.0829 µM) are 126%, 99.3%, 606 and 513.
The like results for `COC[C@@H](NC(C)=O)C(=O)NCc1ccccc1` [Lacosamide] (top concentration 46.0829 µM) were, in that order, 108%, 96.8%, 542 and 491.
Turning to `O=C(CS(=O)Cc1ccco1)NC/C=C\COc1cc(CN2CCCCC2)ccn1` (centres undefined) [Lafutidine] (top concentration 46.0829 µM), the viability was 68.6% in assay [1] and 33.7% in assay [2]. In addition, the results for the “area under the dose-response curve” value in assay [3] and in assay [4] were 537 and 304, respectively.
On the same counts, the results for `Nc1ccn([C@H]2CS[C@@H](CO)O2)c(=O)n1` [Lamivudine] (top concentration 92.1659 µM) are 73.8%, 104%, 458 and 516.
On the same counts, the results for `Nc1nnc(-c2cccc(Cl)c2Cl)c(N)n1` [Lamotrigine] (top concentration 46.0829 µM) are 3.72%, 3.33%, 527 and 350.
Take `Cc1c(OCC(F)(F)F)ccnc1C[S+]([O-])c1nc2ccccc2[nH]1` (centres undefined) [Lansoprazole] (top concentration 46.0829 µM): the results for the viability in assay [1] and in assay [2] were 104% and 71.5%, respectively. Besides, the “area under the dose-response curve” value was determined as 536 in assay [3] and 456 in assay [4].
On the same counts, the results for `C[S+](=O)([O-])CCNCc1ccc(-c2ccc3ncnc(Nc4ccc(OCc5cccc(F)c5)c(Cl)c4)c3c2)o1` [Lapatinib] (top concentration 46.0829 µM) are 3.18%, 13.3%, 483 and 245.
The like results for `CCN1C[C@]2(OC(=O)c3ccccc3NC(C)=O)CC[C@H](OC)[C@@]34[C@@H]2C[C@@H]([C@@H]13)[C@@]1(O)C[C@H](OC)[C@H]2C[C@@H]4[C@]1(O)[C@H]2OC` [Lappaconitine] (top concentration 46.0829 µM) were, in that order, 117%, 101%, 562 and 496.
